Data reported in ChEMBL document CHEMBL3425423, “Hydroxy tricyclic 1,5-naphthyridinone oxabicyclooctane-linked novel bacterial topoisomerase inhibitors as broad-spectrum antibacterial agents-SAR of RHS moiety (Part-3)” (Bioorg Med Chem Lett, 2015).
Values after ≈ are worked out from the molar mass of the structure shown.

Experiments:
Assay type in all cases: functional
Enterococcus faecalis = assay: Antibacterial activity against Enterococcus faecalis ATCC 29212; conditions: Enterococcus faecalis, ATCC 29212; read-out: MIC
Enterococcus faecium = assay: Antibacterial activity against VanA-type vancomycin-resistant Enterococcus faecium A2373; conditions: Enterococcus faecium, A2373; read-out: MIC
Acinetobacter baumannii = assay: Antibacterial activity against Acinetobacter baumannii IID876; conditions: Acinetobacter baumannii, IID876; read-out: MIC
Moraxella catarrhalis = assay: Antibacterial activity against Moraxella catarrhalis ATCC 25238; conditions: Moraxella catarrhalis, ATCC 25238; read-out: MIC
Streptococcus pneumoniae = assay: Antibacterial activity against Streptococcus pneumoniae IID554; conditions: Streptococcus pneumoniae, IID554; read-out: MIC
Pseudomonas aeruginosa = assay: Antibacterial activity against Pseudomonas aeruginosa PAO1; conditions: Pseudomonas aeruginosa, PAO1; read-out: MIC
Escherichia coli = assay: Antibacterial activity against Escherichia coli ATCC 25922; conditions: Escherichia coli, ATCC 25922; read-out: MIC
Staphylococcus aureus [1] = assay: Antibacterial activity against Staphylococcus aureus Smith; conditions: Staphylococcus aureus, Smith; read-out: MIC
Staphylococcus aureus [2] = assay: Ratio of MIC for quinolone-resistant Staphylococcus aureus MS5935 to MIC for quinolone-sensitive Staphylococcus aureus

| Structure (SMILES) | MIC (Enterococcus faecalis) | MIC (Enterococcus faecium) | MIC (Acinetobacter baumannii) | MIC (Moraxella catarrhalis) | MIC (Streptococcus pneumoniae) | MIC (Pseudomonas aeruginosa) | MIC (Escherichia coli) | MIC (Staphylococcus aureus [1]) | Ratio (Staphylococcus aureus [2]) |
| --- | --- | --- | --- | --- | --- | --- | --- | --- | --- |
| O=c1ccc2ncc(F)c3c2n1C[C@@]3(O)CC12CCC(NCc3cc4c(cc3F)OCCO4)(CC1)CO2 | 2 µg/mL (≈ 3.91 µM) | 8 µg/mL (≈ 15.6 µM) | 8 µg/mL (≈ 15.6 µM) | 8 µg/mL (≈ 15.6 µM) | 0.5 µg/mL (≈ 0.977 µM) | 32 µg/mL (≈ 62.6 µM) | 32 µg/mL (≈ 62.6 µM) | 0.25 µg/mL (≈ 0.489 µM) |  |
| O=c1ccc2ncc(F)c3c2n1C[C@@]3(O)CC12CCC(NCc3ccc4c(c3)OCCO4)(CC1)CO2 | 2 µg/mL (≈ 4.05 µM) | 4 µg/mL (≈ 8.1 µM) | 4 µg/mL (≈ 8.1 µM) | 0.5 µg/mL (≈ 1.01 µM) | 0.25 µg/mL (≈ 0.507 µM) | 32 µg/mL (≈ 64.8 µM) | 16 µg/mL (≈ 32.4 µM) | 0.12 µg/mL (≈ 0.243 µM) |  |
| O=C1COc2ccc(CNC34CCC(C[C@]5(O)Cn6c(=O)ccc7ncc(F)c5c76)(CC3)OC4)cc2N1 | 4 µg/mL (≈ 7.9 µM) | 16 µg/mL (≈ 31.6 µM) | 8 µg/mL (≈ 15.8 µM) |  | 1 µg/mL (≈ 1.97 µM) | 16 µg/mL (≈ 31.6 µM) | 6 µg/mL (≈ 11.8 µM) | 1.5 µg/mL (≈ 2.96 µM) |  |
| O=c1cnc2ccc(CNC34CCC(C[C@]5(O)Cn6c(=O)ccc7ncc(F)c5c76)(CC3)OC4)nc2[nH]1 | 32 µg/mL (≈ 63.4 µM) | 32 µg/mL (≈ 63.4 µM) | 32 µg/mL (≈ 63.4 µM) |  | 16 µg/mL (≈ 31.7 µM) | 32 µg/mL (≈ 63.4 µM) | 32 µg/mL (≈ 63.4 µM) | 8 µg/mL (≈ 15.9 µM) | <4 |
| O=c1ccc2ncc(F)c3c2n1C[C@@]3(O)CC12CCC(NC/C=C/c3ccccc3)(CC1)CO2 | 4 µg/mL (≈ 8.67 µM) | 8 µg/mL (≈ 17.3 µM) | 4 µg/mL (≈ 8.67 µM) |  | 0.5 µg/mL (≈ 1.08 µM) | 64 µg/mL (≈ 139 µM) | 32 µg/mL (≈ 69.3 µM) | 0.125 µg/mL (≈ 0.271 µM) |  |
| O=c1ccc2ncc(F)c3c2n1C[C@@]3(O)CC12CCC(NCc3cc(Cl)c4c(c3Cl)OCCO4)(CC1)CO2 | 4 µg/mL (≈ 7.11 µM) | 16 µg/mL (≈ 28.4 µM) | 32 µg/mL (≈ 56.9 µM) | 2 µg/mL (≈ 3.56 µM) | 0.25 µg/mL (≈ 0.445 µM) | 32 µg/mL (≈ 56.9 µM) | 32 µg/mL (≈ 56.9 µM) | 0.5 µg/mL (≈ 0.889 µM) |  |
| O=c1ccc2ncc(F)c3c2n1C[C@@]3(O)CC12CCC(NCc3ccc4c(c3)OC(F)(F)O4)(CC1)CO2 | 8 µg/mL (≈ 15.5 µM) | 32 µg/mL (≈ 62.1 µM) | 32 µg/mL (≈ 62.1 µM) | 4 µg/mL (≈ 7.76 µM) | 1 µg/mL (≈ 1.94 µM) | 32 µg/mL (≈ 62.1 µM) | 32 µg/mL (≈ 62.1 µM) | 0.25 µg/mL (≈ 0.485 µM) |  |
| O=c1ccc2ncc(F)c3c2n1C[C@@]3(O)CC12CCC(NCc3ncc4c(c3Cl)OCCO4)(CC1)CO2 | 8 µg/mL (≈ 15.1 µM) | 32 µg/mL (≈ 60.5 µM) | 32 µg/mL (≈ 60.5 µM) | 32 µg/mL (≈ 60.5 µM) | 1 µg/mL (≈ 1.89 µM) | 32 µg/mL (≈ 60.5 µM) | 32 µg/mL (≈ 60.5 µM) | 2 µg/mL (≈ 3.78 µM) |  |
| O=c1ccc2ncc(F)c3c2n1C[C@@]3(O)CC12CCC(NCc3ccc4c(c3)OCO4)(CC1)CO2 | 4 µg/mL (≈ 8.34 µM) | 16 µg/mL (≈ 33.4 µM) | 4 µg/mL (≈ 8.34 µM) | 4 µg/mL (≈ 8.34 µM) | 0.5 µg/mL (≈ 1.04 µM) | 32 µg/mL (≈ 66.7 µM) | 32 µg/mL (≈ 66.7 µM) | 0.5 µg/mL (≈ 1.04 µM) |  |
| O=c1ccc2ncc(F)c3c2n1C[C@@]3(O)CC12CCC(NCc3ccc4c(n3)NCCO4)(CC1)CO2 | 8 µg/mL (≈ 16.2 µM) | 16 µg/mL (≈ 32.4 µM) | 8 µg/mL (≈ 16.2 µM) | 4 µg/mL (≈ 8.1 µM) | 1 µg/mL (≈ 2.03 µM) | 32 µg/mL (≈ 64.8 µM) | 32 µg/mL (≈ 64.8 µM) | 2 µg/mL (≈ 4.05 µM) |  |
| O=C1COc2cnc(CNC34CCC(C[C@]5(O)Cn6c(=O)ccc7ncc(F)c5c76)(CC3)OC4)cc2N1 | 8 µg/mL (≈ 15.8 µM) | 32 µg/mL (≈ 63.1 µM) | 32 µg/mL (≈ 63.1 µM) |  | 4 µg/mL (≈ 7.88 µM) | 32 µg/mL (≈ 63.1 µM) | 16 µg/mL (≈ 31.5 µM) | 4 µg/mL (≈ 7.88 µM) |  |
| O=c1ccc2ncc(F)c3c2n1C[C@@]3(O)CC12CCC(NCc3ccc4c(n3)OCCO4)(CC1)CO2 | 8 µg/mL (≈ 16.2 µM) | 32 µg/mL (≈ 64.7 µM) | 32 µg/mL (≈ 64.7 µM) | 32 µg/mL (≈ 64.7 µM) | 2 µg/mL (≈ 4.04 µM) | 32 µg/mL (≈ 64.7 µM) | 32 µg/mL (≈ 64.7 µM) | 2 µg/mL (≈ 4.04 µM) |  |
| O=c1ccc2ncc(F)c3c2n1C[C@@]3(O)CC12CCC(NC/C=C/c3ccc(F)cc3)(CC1)CO2 | 16 µg/mL (≈ 33.4 µM) | 32 µg/mL (≈ 66.7 µM) | 32 µg/mL (≈ 66.7 µM) |  | 4 µg/mL (≈ 8.34 µM) | 64 µg/mL (≈ 133 µM) | 64 µg/mL (≈ 133 µM) | 0.5 µg/mL (≈ 1.04 µM) |  |
| O=C1CSc2ccc(CNC34CCC(C[C@]5(O)Cn6c(=O)ccc7ncc(F)c5c76)(CC3)OC4)nc2N1 | 2 µg/mL (≈ 3.82 µM) | 8 µg/mL (≈ 15.3 µM) | 2 µg/mL (≈ 3.82 µM) |  | 0.5 µg/mL (≈ 0.955 µM) | 16 µg/mL (≈ 30.6 µM) | 4 µg/mL (≈ 7.64 µM) | 0.25 µg/mL (≈ 0.477 µM) |  |
